{"source": "patent US8178515B2", "about": "“β-hydroxy-γ-aminophosphonates and methods for the preparation and use thereof” (Nucitec S.A. de C.V., priority 2008, dated 2012)", "key": {"WRL-68 cells [1]": {"tested_on": "WRL-68 cells", "experiment": "Utilization of glucose in hepatic cells, in vitro hyperglycemia model (glucose and glycogen levels)", "format": "cell-based, human", "conditions": "24 hours; for reduction of extracellular glucose levels: conditioned media, 30 mM D-glucose medium", "description": "WRL-68 cells were thawed and maintained in culture with Minimal Essential Medium (Gibco BRL) containing 4 mM Glutamine, 1% non essential aminoacids (Gibco BRL), 10% Fetal Calf Serum (FCS), and 100 μg/ml of ampicillin. WRL-68 cells were seeded at […] in complete media in 75 cm^2 cell culture flasks, cells were maintained for 24 hours at 37° C. under an atmosphere of 5% CO2. The medium was changed after 24 hr. Cells were passaged by trypsinization using a 0.025% trypsin solution containing 0.01% N,N,-di-ethyldithiocarbamic acid sodium salt (EDTA). In order to evaluate the effect of analog of carnitine on utilization of glucose levels a model of hyperglycemia in vitro (Nakajina et al., J. Biol. Chem. 275:20880-20886 (2000)) was developed. Two days after plating, the medium was changed to F-12K containing 7 mM D-glucose and 10% fetal bovine serum, and the culture was continued for 2 more days. The cells were then cultured in serum-free F-12K medium containing 30 mM D-glucose for 24 h. Cells were treated with the diastereomeric mixture of compound 7 at concentrations of 0.01, 0.1, 1,10, 100 μM, and 1 mM and 2 mM during 24 hours. Samples of conditioned media and cell lysates were kept to […]. Glucose and glycogen levels were measured by using a Glucose PAP-SL Kit (Tech, USA) and glycogen assay kit (Biovision Research Products, California, USA)."}, "WRL-68 cells [2]": {"tested_on": "WRL-68 cells", "protocol": "Two cell lines were used for this study: 293Q cells derived from normal epithelial cells of human fetal kidney (CRL-1573 ATCC) and WRL-68 cells derived from epithelial cells of human liver (CRL-48 ATCC). Cell lines were cultured in minimal essential medium (MEM, GIBCO BRL Inc., Grand Island, N.Y.), supplemented with nonessential amino acids (GIBCO BRL Inc., Grand Island, N.Y.), 10% fetal calf serum (GIBCO BRL Inc., Grand Island, N.Y.), 1-glutamine (2 mol/L), and antibiotics. Cells were plated in 100-mm culture dishes (10^6 cells/dish), and maintained at 37° C. under an atmosphere of 5% CO2 in humidified air. Subcultures were obtained by trypsinization (0.025% trypsin solution containing 0.01% N,N-diethyldithiocarbamic acid sodium salt, EDTA). For cytological investigation, 10^5 cells per mL of MEM medium were used. […] After incubation of the cells with the extract, they were collected for further cytological investigations.\nCells were incubated in 96-well plates. After 24 h, the medium was removed; the cells were washed twice with PBS and then incubated with analog. […] Cell viability was measured by a 3-(4,5-dimethylthiazol-2-yl)-2,5-diphenyltetrazolium bromide (MTT) assay (Wang et al., Journal Ocular. Pharm. Ther. 12: 35-43 (1996)). […] When the blue crystals were dissolved, the optical density was determined on a microplate reader at 450 nm. […]"}, "chick embryos": {"tested_on": "chick embryos", "experiment": "Teratogenicity assay in chick embryos", "conditions": "for Deaths (embryos / total examined) / Embryonic region affected: Axial skeleton (abnormal embryos / total examined) / Embryonic region affected: CNS (abnormal embryos / total examined) / Embryonic region affected: Heart (abnormal embryos / total examined) / Embryonic region affected: Somites (abnormal embryos / total examined) / Embryonic region affected: Vasculature (abnormal embryos / total examined): 48 h of exposition", "description": "A teratogenicity assay was carried out as described by Jelinek et al., Func. Devel. Morph. 4:317-23 (1994). Fertile White Leghorn chicken eggs were obtained from A.L.P.E. S.A. (Puebla, Mexico) and were stored at 6° C. Sixty fertilized eggs were weighed, sterilized, and divided into […]. First group served as a non-treated control. The next three were exposed to the diastereomeric mixture of compound 7 (1, 10, and 100 μM). The last group received caffeine (10 mg/mL) and as positive control. Test solutions (1 mL) were added to the air sac under sterile conditions. Each solution was injected after drilling into the shell at the blunt end of the egg; after injection, the holes were immediately sealed with melted paraffin wax. The eggs were then transferred and maintained in a forced draft incubator at 37.5° C. with a relative humidity of 55% until the desired stage of development was reached.\nTo determine the concentration dependency of the diastereomeric mixture of compound 7, a histological analysis was carried out. Embryos in each group were fixed in buffered formal saline (pH 7.4), dehydrated, and embedded in paraffin blocks. Paraffin tissue sections of 6 μm were stained with acetocarmine for routine histological examination."}}, "data": [{"smiles": "CC(C)CC(C(O)CP(=O)(O)O)[N+](C)(C)C.[I-]", "note": "(single isomer, unassigned) [diastereomeric mixture of compound 7]", "values": [{"measurement": "reduction of extracellular glucose levels", "setting": "WRL-68 cells [1]; 1 μM", "value": 16, "unit": "%"}, {"measurement": "reduction of extracellular glucose levels", "setting": "WRL-68 cells [1]; 10 μM", "value": 18, "unit": "%"}, {"measurement": "reduction of extracellular glucose levels", "setting": "WRL-68 cells [1]; 100 μM", "value": 23, "unit": "%"}, {"measurement": "reduction of extracellular glucose levels", "setting": "WRL-68 cells [1]; 1 mM", "value": 30, "unit": "%"}, {"measurement": "cellular glycogen levels", "setting": "WRL-68 cells [1]; 2 mM", "value": "increase"}, {"measurement": "reduction of extracellular glucose levels", "setting": "WRL-68 cells [1]; 2 mM", "value": 32, "unit": "%"}, {"measurement": "changes in cellular glucose", "setting": "WRL-68 cells [1]; any concentration (0.01 μM to 2 mM)", "value": "No changes"}, {"measurement": "effects on cell proliferation (MTT)", "setting": "WRL-68 cells [2]", "value": "did not show citotoxicity or effects on cell proliferation"}, {"measurement": "alterations in embryos (histological analysis)", "setting": "chick embryos; in vivo", "value": "No alterations"}, {"measurement": "effects on cell proliferation (MTT)", "setting": "293Q cells", "value": "did not show citotoxicity or effects on cell proliferation"}]}, {"smiles": "Cn1c(=O)c2c(ncn2C)n(C)c1=O", "note": "[Caffeine, caffeine, reference compound]", "values": [{"measurement": "Deaths (embryos / total examined)", "setting": "chick embryos; positive control, 10 mg/mL", "value": "2/10"}, {"measurement": "Embryonic region affected: Axial skeleton (abnormal embryos / total examined)", "setting": "chick embryos; positive control, 10 mg/mL", "value": "10/10"}, {"measurement": "Embryonic region affected: CNS (abnormal embryos / total examined)", "setting": "chick embryos; positive control, 10 mg/mL", "value": "8/10"}, {"measurement": "Embryonic region affected: Heart (abnormal embryos / total examined)", "setting": "chick embryos; positive control, 10 mg/mL", "value": "8/10"}, {"measurement": "Embryonic region affected: Somites (abnormal embryos / total examined)", "setting": "chick embryos; positive control, 10 mg/mL", "value": "8/10"}, {"measurement": "Embryonic region affected: Vasculature (abnormal embryos / total examined)", "setting": "chick embryos; positive control, 10 mg/mL", "value": "6/10"}]}, {"smiles": "CC(C)C[C@@H]([C@@H](O)CP(=O)(O)O)[N+](C)(C)C.[I-]", "note": "[compound 7, (2R,3S)-(2-hydroxy-5-methyl-3-trimethylamonium-hexyl)-phosphonic acid; iodide]", "values": [{"measurement": "Deaths (embryos / total examined)", "setting": "chick embryos; 1 μM", "value": "0/10"}, {"measurement": "Embryonic region affected: Axial skeleton (abnormal embryos / total examined)", "setting": "chick embryos; 1 μM", "value": "0/10"}, {"measurement": "Embryonic region affected: CNS (abnormal embryos / total examined)", "setting": "chick embryos; 1 μM", "value": "0/10"}, {"measurement": "Embryonic region affected: Heart (abnormal embryos / total examined)", "setting": "chick embryos; 1 μM", "value": "0/10"}, {"measurement": "Embryonic region affected: Somites (abnormal embryos / total examined)", "setting": "chick embryos; 1 μM", "value": "0/10"}, {"measurement": "Embryonic region affected: Vasculature (abnormal embryos / total examined)", "setting": "chick embryos; 1 μM", "value": "0/10"}, {"measurement": "Deaths (embryos / total examined)", "setting": "chick embryos; 100 μM", "value": "0/10"}, {"measurement": "Embryonic region affected: Axial skeleton (abnormal embryos / total examined)", "setting": "chick embryos; 100 μM", "value": "0/10"}, {"measurement": "Embryonic region affected: CNS (abnormal embryos / total examined)", "setting": "chick embryos; 100 μM", "value": "0/10"}, {"measurement": "Embryonic region affected: Heart (abnormal embryos / total examined)", "setting": "chick embryos; 100 μM", "value": "0/10"}, {"measurement": "Embryonic region affected: Somites (abnormal embryos / total examined)", "setting": "chick embryos; 100 μM", "value": "0/10"}, {"measurement": "Embryonic region affected: Vasculature (abnormal embryos / total examined)", "setting": "chick embryos; 100 μM", "value": "0/10"}, {"measurement": "Deaths (embryos / total examined)", "setting": "chick embryos; 1 mM", "value": "0/10"}, {"measurement": "Embryonic region affected: Axial skeleton (abnormal embryos / total examined)", "setting": "chick embryos; 1 mM", "value": "0/10"}, {"measurement": "Embryonic region affected: CNS (abnormal embryos / total examined)", "setting": "chick embryos; 1 mM", "value": "0/10"}, {"measurement": "Embryonic region affected: Heart (abnormal embryos / total examined)", "setting": "chick embryos; 1 mM", "value": "0/10"}, {"measurement": "Embryonic region affected: Somites (abnormal embryos / total examined)", "setting": "chick embryos; 1 mM", "value": "0/10"}, {"measurement": "Embryonic region affected: Vasculature (abnormal embryos / total examined)", "setting": "chick embryos; 1 mM", "value": "0/10"}]}]}
